Reference: US10189836B2, “Therapeutic compounds, compositions and methods of use thereof” (Genentech, Inc., priority 2015, dated 2019)

Tests used:
[1] = molecular target: isolated recombinant JAK1 kinase domain (Homo sapiens (Human), UniProt P23458); experiment: JAK1 enzyme assay (Caliper LabChip, Ki); format: biochemical; details: isolated recombinant JAK1 kinase domain, 1.5 nM enzyme, ATP 25 μM
[2] = molecular target: isolated recombinant JAK2 kinase domain (Homo sapiens (Human), UniProt O60674); experiment: JAK2 enzyme assay (Caliper LabChip, Ki); format: biochemical; details: isolated recombinant JAK2 kinase domain, 0.2 nM enzyme, ATP 25 μM
Sequence of isolated recombinant JAK2 kinase domain (O60674 849-1124): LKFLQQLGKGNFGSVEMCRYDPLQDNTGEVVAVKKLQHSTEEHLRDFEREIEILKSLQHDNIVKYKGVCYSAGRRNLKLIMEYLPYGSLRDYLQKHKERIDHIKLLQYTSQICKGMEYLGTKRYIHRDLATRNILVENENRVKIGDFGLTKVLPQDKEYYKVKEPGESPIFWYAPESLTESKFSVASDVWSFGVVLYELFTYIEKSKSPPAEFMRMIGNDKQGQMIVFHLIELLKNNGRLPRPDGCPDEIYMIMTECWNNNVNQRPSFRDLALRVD

Sequence of isolated recombinant JAK1 kinase domain (P23458 875-1153): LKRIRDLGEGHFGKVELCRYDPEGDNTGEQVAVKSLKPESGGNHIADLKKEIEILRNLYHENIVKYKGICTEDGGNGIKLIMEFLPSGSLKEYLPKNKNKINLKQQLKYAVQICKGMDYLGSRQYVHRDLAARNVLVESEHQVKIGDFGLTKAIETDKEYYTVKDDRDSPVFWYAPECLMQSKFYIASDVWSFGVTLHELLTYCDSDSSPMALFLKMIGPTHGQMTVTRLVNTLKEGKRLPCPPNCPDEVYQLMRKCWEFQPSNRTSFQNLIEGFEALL

SMILES | Ki [1] [nM] | Ki [2] [nM]
CN1CCN(C(=O)Cn2cc(Nc3nc4c(N5CC6CCC(C5)N6S(=O)(=O)Cc5ccccc5F)cccn4n3)cn2)CC1 [Example 158, 2-[4-[[8-[8-[(2-fluorophenyl)methylsulfonyl]-3,8-diazabicyclo[3.2.1]octan-3-yl]-[1,2,4]triazolo[1,5-a]pyridin-2-yl]amino]pyrazol-1-yl]-1-(4-methylpiperazin-1-yl)ethanone] | 0.9 | 2.8
O=C(Cn1cc(Nc2nc3c(N4CC5CCC(C4)N5C(=O)CCC(F)(F)F)cccn3n2)cn1)N1CCC(N2CCn3nccc3C2)CC1 [Example 179, 1-[3-[2-[[1-[2-[4-(6,7-dihydro-4H-pyrazolo[1,5-a]pyrazin-5-yl)-1-piperidyl]-2-oxo-ethyl]pyrazol-4-yl]amino]-[1,2,4]triazolo[1,5-a]pyridin-8-yl]-3,8-diazabicyclo[3.2.1]octan-8-yl]-4,4,4-trifluoro-butan-1-one; formic acid] | 1.6 | 1.3
CN1CCN(C(=O)Cn2cc(Nc3nc4c(N5CC6CCC(C5)N6C(=O)N5CCC(F)(F)CC5)cccn4n3)cn2)CC1 [Example 188, 2-[4-[[8-[8-(4,4-difluoropiperidine-1-carbonyl)-3,8-diazabicyclo[3.2.1]octan-3-yl]-[1,2,4]triazolo[1,5-a]pyridin-2-yl]amino]pyrazol-1-yl]-1-(4-methylpiperazin-1-yl)ethanone] | 0.2 | 0.2
CN1CCN(C(=O)Cn2cc(Nc3nc4c(N5C[C@H]6CC[C@@H](C5)[C@H]6OCc5ccc(C#N)cc5)cccn4n3)cn2)CC1 [Example 128, 4-[[(1S,5R)-3-[2-[[1-[2-(4-methylpiperazin-1-yl)-2-oxo-ethyl]pyrazol-4-yl]amino]-[1,2,4]triazolo[1,5-a]pyridin-8-yl]-3-azabicyclo[3.2.1]octan-8-yl]oxymethyl]benzonitrile] | 0.4 | 1
CN1CCN(C(=O)Cn2cc(Nc3nc4c(N5CC6CCC(C5)N6C(=O)c5cccc(C#N)c5)cccn4n3)cn2)CC1 [Example 199, 3-[3-[2-[[1-[2-(4-methylpiperazin-1-yl)-2-oxo-ethyl]pyrazol-4-yl]amino]-[1,2,4]triazolo[1,5-a]pyridin-8-yl]-3,8-diazabicyclo[3.2.1]octane-8-carbonyl]benzonitrile] | 1.3 | 2.1
CN1CCN(C(=O)Cn2cc(Nc3nc4c(N5CC6CCC(C5)N6C(=O)C5CCSC5)cccn4n3)cn2)CC1 (stereo not shown) [Example 50, 1-(4-methylpiperazin-1-yl)-2-[4-[[8-[8-(tetrahydrothiophene-3-carbonyl)-3,8-diazabicyclo[3.2.1]octan-3-yl]-[1,2,4]triazolo[1,5-a]pyridin-2-yl]amino]pyrazol-1-yl]ethanone] | 1.2 | 1.5
CN1CCN(C(=O)Cn2cc(Nc3nc4c(N5CC6CCC(C5)N6S(=O)(=O)C5CCCCC5)cccn4n3)cn2)CC1 [Example 178, 2-[4-[[8-(8-cyclohexylsulfonyl-3,8-diazabicyclo[3.2.1]octan-3-yl)-[1,2,4]triazolo[1,5-a]pyridin-2-yl]amino]pyrazol-1-yl]-1-(4-methylpiperazin-1-yl)ethanone; formic acid] | 1.8 | 1.5
CN1CCN(C(=O)Cn2cc(Nc3nc4c(N5CC6CCC(C5)N6C(=O)c5cccs5)cccn4n3)cn2)CC1 [Example 76, 1-(4-methylpiperazin-1-yl)-2-[4-[[8-[8-(thiophene-2-carbonyl)-3,8-diazabicyclo[3.2.1]octan-3-yl]-[1,2,4]triazolo[1,5-a]pyridin-2-yl]amino]pyrazol-1-yl]ethanone] | 0.8 | 1.3
CN1CCN(C(=O)Cn2cc(Nc3nc4c(N5CC6CCC(C5)N6C(=O)c5ccccc5Cl)cccn4n3)cn2)CC1 [Example 114] | 1.7 | 4.8
Cc1ncc(S(=O)(=O)N2C3CCC2CN(c2cccn4nc(Nc5cnn(CC(=O)N6CCN(C)CC6)c5)nc24)C3)s1 [Example 138, 1-(4-methylpiperazin-1-yl)-2-[4-[[8-[8-(2-methylthiazol-5-yl)sulfonyl-3,8-diazabicyclo[3.2.1]octan-3-yl]-[1,2,4]triazolo[1,5-a]pyridin-2-yl]amino]pyrazol-1-yl]ethanone] | 0.7 | 0.8
CN1CCN(C(=O)Cn2cc(Nc3nc4c(N5CC6CCC(C5)N6C(=O)CC(O)C(F)(F)F)cccn4n3)cn2)CC1 (stereo not shown) [Example 154, 4,4,4-trifluoro-3-hydroxy-1-[3-[2-[[1-[2-(4-methylpiperazin-1-yl)-2-oxo-ethyl]pyrazol-4-yl]amino]-[1,2,4]triazolo[1,5-a]pyridin-8-yl]-3,8-diazabicyclo[3.2.1]octan-8-yl]butan-1-one] | 0.5 | 0.9
CN1CCN(C(=O)Cn2cc(Nc3nc4c(N5CC6CCC(C5)N6C(=O)C5(C#N)CCC5)cccn4n3)cn2)CC1 [Example 116, 1-[3-[2-[[1-[2-(4-methylpiperazin-1-yl)-2-oxo-ethyl]pyrazol-4-yl]amino]-[1,2,4]triazolo[1,5-a]pyridin-8-yl]-3,8-diazabicyclo[3.2.1]octane-8-carbonyl]cyclobutane-carbonitrile] | 2.5 | 3.5
CN1CCN(C(=O)Cn2cc(Nc3nc4c(N5CC6CCC(C5)N6S(=O)(=O)Cc5ccc(Cl)cc5)cccn4n3)cn2)CC1 [Example 166, 2-[4-[[8-[8-[(4-chlorophenyl)methylsulfonyl]-3,8-diazabicyclo[3.2.1]octan-3-yl]-[1,2,4]triazolo[1,5-a]pyridin-2-yl]amino]pyrazol-1-yl]-1-(4-methylpiperazin-1-yl)ethanone] | 0.7 | 0.9
CN1CCN(C(=O)Cn2cc(Nc3nc4c(N5CC6CCC(C5)N6C(=O)Cc5ccncc5)cccn4n3)cn2)CC1 [Example 42, 1-[3-[2-[[1-[2-(4-methylpiperazin-1-yl)-2-oxo-ethyl]pyrazol-4-yl]amino]-[1,2,4]triazolo[1,5-a]pyridin-8-yl]-3,8-diazabicyclo[3.2.1]octan-pyridyl)ethanone] | 1.6 | 5.7
CN1CCN(C(=O)Cn2cc(Nc3nc4c(N5CC6CCC(C5)N6CC(F)(F)F)cccn4n3)cn2)CC1 [Example 98, 1-(4-methylpiperazin-1-yl)-2-[4-[[8-[8-(2,2,2-trifluoroethyl)-3,8-diazabicyclo[3.2.1]octan-3-yl]-[1,2,4]triazolo[1,5-a]pyridin-2-yl]amino]pyrazol-1-yl]ethanone] | 2.1 | 4.1
CN1CCN(C(=O)Cn2cc(Nc3nc4c(N5CC6CCC(C5)N6S(=O)(=O)c5ccccc5Cl)cccn4n3)cn2)CC1 [Example 111, 2-[4-[[8-[8-(2-chlorophenyl)sulfonyl-3,8-diazabicyclo[3.2.1]octan-3-yl]-[1,2,4]triazolo[1,5-a]pyridin-2-yl]amino]pyrazol-1-yl]-1-(4-methylpiperazin-1-yl)ethanone] | 0.5 | 0.5
CN1CCN(C(=O)Cn2cc(Nc3nc4c(N5CC6CCC(C5)N6C(=O)c5ccsc5)cccn4n3)cn2)CC1 [Example 157, 1-(4-methylpiperazin-1-yl)-2-[4-[[8-[8-(thiophene-3-carbonyl)-3,8-diazabicyclo[3.2.1]octan-3-yl]-[1,2,4]triazolo[1,5-a]pyridin-2-yl]amino]pyrazol-1-yl]ethanone] | 0.4 | 1.4
CN(C)C(=O)CN1CCN(CC2CCN(C(=O)Cn3cc(Nc4nc5c(N6CC7CCC(C6)N7C(=O)N6CC(C(F)(F)F)C6)cccn5n4)cn3)CC2)CC1 [Example 81, N,N-dimethyl-2-[4-[[1-[2-[4-[[8-[8-[3-(trifluoromethyl)azetidine-1-carbonyl]-3,8-diazabicyclo[3.2.1]octan-3-yl]-[1,2,4]triazolo[1,5-a]pyridin-2-yl]amino]pyrazol-1-yl]acetyl]-4-piperidyl]methyl]piperazin-1-yl]acetamide] | 1 | 0.8
O=C(Cn1cc(Nc2nc3c(N4CC5CCC(C4)N5C(=O)CCC(F)(F)F)cccn3n2)cn1)N1CCN(C2CCCCC2)CC1 [Example 153, 1-[3-[2-[[1-[2-(4-cyclohexylpiperazin-1-yl)-2-oxo-ethyl]pyrazol-4-yl]amino]-[1,2,4]triazolo[1,5-a]pyridin-8-yl]-3,8-diazabicyclo[3.2.1]octan-8-yl]-4,4,4-trifluoro-butan-1-one] | 0.2 | 0.3
CSC1CN(C(=O)N2C3CCC2CN(c2cccn4nc(Nc5cnn(CC(=O)N6CCN(C)CC6)c5)nc24)C3)C1 [Example 171, 1-(4-methylpiperazin-1-yl)-2-[4-[[8-[8-(3-methylsulfanylazetidine-1-carbonyl)-3,8-diazabicyclo[3.2.1]octan-3-yl]-[1,2,4]triazolo[1,5-a]pyridin-2-yl]amino]pyrazol-1-yl]ethanone] | 1.3 | 2.9
CC(F)(F)CNC1CCN(C(=O)Cn2cc(Nc3nc4c(N5CC6CCC(C5)N6C(=O)N5CC(C(F)(F)F)C5)cccn4n3)cn2)CC1 [Example 120, 1-[4-(2,2-difluoropropylamino)-1-piperidyl]-2-[4-[[8-[8-[3-(trifluoromethyl)azetidine-1-carbonyl]-3,8-diazabicyclo[3.2.1]octan-3-yl]-[1,2,4]triazolo[1,5-a]pyridin-2-yl]amino]pyrazol-1-yl]ethanone] | 0.6 | 0.7
O=C(Cn1cc(Nc2nc3c(N4CC5CCC(C4)N5C(=O)N4CC(C(F)(F)F)C4)cccn3n2)cn1)N1CCN(C2COC2)CC1 [Example 194, 1-[4-(oxetan-3-yl)piperazin-1-yl]-2-[4-[[8-[8-[3-(trifluoromethyl)azetidine-1-carbonyl]-3,8-diazabicyclo[3.2.1]octan-3-yl]-[1,2,4]triazolo[1,5-a]pyridin-2-yl]amino]pyrazol-1-yl]ethanone] | 0.9 | 0.4
CN1CCN(C(=O)Cn2cc(Nc3nc4c(N5CC6CCC(C5)N6C(=O)[C@H]5C[C@@H](C(F)(F)F)C5)cccn4n3)cn2)CC1 [Example 15, formic acid; 1-(4-methylpiperazin-1-yl)-2-[4-[[8-[8-[3-(trifluoromethyl)cyclobutanecarbonyl]-3,8-diazabicyclo[3.2.1]octan-3-yl]-[1,2,4]triazolo[1,5-a]pyridin-2-yl]amino]pyrazol-1-yl]ethanone] | 1.1 | 3.7
